Data: patent US20220363689A1, “INHIBITOR OF BTK AND MUTANTS THEREOF” (Newave Pharmaceutical Inc., priority 2019, published 2022)
Like-named read-outs stand apart in the source and are kept apart here.

Key:
TEC = target: T1, TEC (Homo sapiens, UniProt P42680); experiment: Caliper-based kinase assay, off-target TEC; type: biochemical; details: Cys-481 homologous kinase panel
T1 sequence (P42680 1-631): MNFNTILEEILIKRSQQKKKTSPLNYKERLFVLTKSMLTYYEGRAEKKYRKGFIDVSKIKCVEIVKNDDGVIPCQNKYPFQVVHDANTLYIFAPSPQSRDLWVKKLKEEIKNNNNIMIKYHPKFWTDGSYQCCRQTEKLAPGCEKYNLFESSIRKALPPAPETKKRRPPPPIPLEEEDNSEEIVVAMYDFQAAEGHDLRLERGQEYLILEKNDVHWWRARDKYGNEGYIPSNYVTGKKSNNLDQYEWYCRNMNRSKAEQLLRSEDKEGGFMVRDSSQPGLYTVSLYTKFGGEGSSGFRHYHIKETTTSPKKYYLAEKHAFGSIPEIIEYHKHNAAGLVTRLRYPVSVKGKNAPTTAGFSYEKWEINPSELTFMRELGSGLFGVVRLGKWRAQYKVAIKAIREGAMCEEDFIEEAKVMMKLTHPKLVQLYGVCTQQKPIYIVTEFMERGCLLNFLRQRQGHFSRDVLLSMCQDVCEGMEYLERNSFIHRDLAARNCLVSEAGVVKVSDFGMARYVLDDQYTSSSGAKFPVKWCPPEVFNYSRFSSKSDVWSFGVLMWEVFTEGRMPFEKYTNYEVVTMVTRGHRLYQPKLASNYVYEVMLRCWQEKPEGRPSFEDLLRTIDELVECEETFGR
From the text: (§1) A Caliper-based kinase assay (Caliper Life Sciences, Hopkinton, Mass.) was used to measure inhibition of kinase activity of compounds of the present disclosure. […]

[1] = system: liver cancer cell line HepG2; experiment: HepG2 in vitro liver toxicity assay (ATPlite); type: cell-based; details: Homo sapiens, HepG2, about 72 hours incubation
Method: (§2) Cell antiproliferation is assayed by PerkinElmer ATPlite™ Luminescence Assay System. Briefly, the liver cancer cell line HepG2 are plated at a density of about 1×10^4 cells per well in Costar 96-well plates, and are incubated with different concentrations of compounds for about 72 hours in medium supplemented with 5% FBS. One lyophilized substrate solution vial is then reconstituted by adding 5 mL of substrate buffer solution, and is agitated gently until the solution is homogeneous. About 50 μL of mammalian cell lysis solution is added to 100 μL of cell suspension per well of a microplate, and the plate is shaken for about five minutes in an orbital shaker at −700 rpm. This procedure is used to lyse the cells and to stabilize the ATP. Next, 50 μL substrate solution is added to the wells and microplate is shaken for five minutes in an orbital shaker at −700 rpm. Finally, the luminescence is measured by a PerkinElmer TopCount® Microplate Scintillation Counter. Such assays, carried out with a range of doses of test compounds, allow the determination of the cellular anti-antiproliferative IC50 of the compounds of the present invention.

HER2 = HER2 (Homo sapiens, UniProt P04626); experiment: Caliper-based kinase assay, off-target HER2; type: biochemical; details: Cys-481 homologous kinase panel
From the text: as §1

human primary hepatocyte = experiment: Human primary hepatocyte cytotoxicity (ATPlite); type: cell-based; details: about 72 hours incubation
Method: as §2, with “viability assay” for “antiproliferation”, “human primary hepatocyte” for “liver cancer cell line HepG2”

BMX = target: T2, BMX (Homo sapiens, UniProt P51813); experiment: Caliper-based kinase assay, off-target BMX; type: biochemical; details: Cys-481 homologous kinase panel
T2 sequence (P51813 1-675): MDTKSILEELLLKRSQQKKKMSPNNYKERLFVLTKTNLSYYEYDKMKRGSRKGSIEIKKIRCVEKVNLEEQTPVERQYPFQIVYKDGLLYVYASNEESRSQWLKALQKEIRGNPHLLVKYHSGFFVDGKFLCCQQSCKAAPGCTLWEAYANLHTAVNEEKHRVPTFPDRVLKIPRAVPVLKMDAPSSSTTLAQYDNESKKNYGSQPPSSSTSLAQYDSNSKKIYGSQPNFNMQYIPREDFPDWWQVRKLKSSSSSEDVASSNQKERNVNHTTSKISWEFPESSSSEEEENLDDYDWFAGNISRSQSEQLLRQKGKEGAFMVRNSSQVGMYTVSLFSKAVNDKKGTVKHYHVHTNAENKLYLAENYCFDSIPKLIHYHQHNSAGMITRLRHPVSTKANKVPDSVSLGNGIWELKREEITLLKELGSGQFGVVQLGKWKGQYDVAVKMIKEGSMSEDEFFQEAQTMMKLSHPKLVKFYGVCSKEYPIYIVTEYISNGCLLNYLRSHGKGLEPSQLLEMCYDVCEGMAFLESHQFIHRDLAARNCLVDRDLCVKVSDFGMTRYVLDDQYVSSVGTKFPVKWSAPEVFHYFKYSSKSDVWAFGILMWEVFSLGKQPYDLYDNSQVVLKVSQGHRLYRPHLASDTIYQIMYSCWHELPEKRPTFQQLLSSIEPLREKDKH
From the text: as §1

BLK = BLK (Homo sapiens, UniProt P51451); experiment: Caliper-based kinase assay, off-target BLK; type: biochemical; details: Cys-481 homologous kinase panel
From the text: as §1

EGFR = EGFR (Homo sapiens, UniProt P00533); experiment: Caliper-based kinase assay, off-target EGFR; type: biochemical; details: Cys-481 homologous kinase panel
From the text: as §1

HER4 = HER4 (Homo sapiens, UniProt Q15303); experiment: Caliper-based kinase assay, off-target HER4; type: biochemical; details: Cys-481 homologous kinase panel
From the text: as §1

Chain of EGFR (P00533 25-1210): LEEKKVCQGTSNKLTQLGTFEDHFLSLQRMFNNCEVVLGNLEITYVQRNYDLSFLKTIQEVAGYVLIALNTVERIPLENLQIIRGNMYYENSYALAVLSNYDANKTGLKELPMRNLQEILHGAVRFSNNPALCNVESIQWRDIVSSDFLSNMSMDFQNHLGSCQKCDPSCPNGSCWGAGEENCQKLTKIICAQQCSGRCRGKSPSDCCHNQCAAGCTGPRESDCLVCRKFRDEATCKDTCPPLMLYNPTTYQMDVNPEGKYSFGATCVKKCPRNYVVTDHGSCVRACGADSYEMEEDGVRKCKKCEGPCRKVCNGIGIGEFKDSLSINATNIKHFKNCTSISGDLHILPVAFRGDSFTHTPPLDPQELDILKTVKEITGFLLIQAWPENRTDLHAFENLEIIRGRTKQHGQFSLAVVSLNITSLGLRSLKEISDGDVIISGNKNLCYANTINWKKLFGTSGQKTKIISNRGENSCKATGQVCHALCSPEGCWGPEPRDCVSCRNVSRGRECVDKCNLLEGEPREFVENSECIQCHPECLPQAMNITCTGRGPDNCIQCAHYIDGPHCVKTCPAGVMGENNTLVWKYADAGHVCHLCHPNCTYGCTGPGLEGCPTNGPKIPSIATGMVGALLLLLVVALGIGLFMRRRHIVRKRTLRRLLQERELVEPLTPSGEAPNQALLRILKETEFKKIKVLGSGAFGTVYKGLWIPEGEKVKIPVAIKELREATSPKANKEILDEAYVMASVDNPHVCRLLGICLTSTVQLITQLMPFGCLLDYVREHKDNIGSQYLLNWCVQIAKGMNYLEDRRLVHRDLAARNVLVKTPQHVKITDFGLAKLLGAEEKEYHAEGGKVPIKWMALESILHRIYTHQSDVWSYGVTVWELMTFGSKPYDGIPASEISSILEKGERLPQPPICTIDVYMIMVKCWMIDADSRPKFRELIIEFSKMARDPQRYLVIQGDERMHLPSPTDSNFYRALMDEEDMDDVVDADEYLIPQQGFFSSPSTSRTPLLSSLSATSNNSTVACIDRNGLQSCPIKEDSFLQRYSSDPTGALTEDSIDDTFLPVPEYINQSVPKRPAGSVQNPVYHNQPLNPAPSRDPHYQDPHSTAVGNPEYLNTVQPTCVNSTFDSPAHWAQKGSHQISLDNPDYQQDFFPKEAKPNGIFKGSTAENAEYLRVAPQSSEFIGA
Chain of BLK (P51451 whole entry): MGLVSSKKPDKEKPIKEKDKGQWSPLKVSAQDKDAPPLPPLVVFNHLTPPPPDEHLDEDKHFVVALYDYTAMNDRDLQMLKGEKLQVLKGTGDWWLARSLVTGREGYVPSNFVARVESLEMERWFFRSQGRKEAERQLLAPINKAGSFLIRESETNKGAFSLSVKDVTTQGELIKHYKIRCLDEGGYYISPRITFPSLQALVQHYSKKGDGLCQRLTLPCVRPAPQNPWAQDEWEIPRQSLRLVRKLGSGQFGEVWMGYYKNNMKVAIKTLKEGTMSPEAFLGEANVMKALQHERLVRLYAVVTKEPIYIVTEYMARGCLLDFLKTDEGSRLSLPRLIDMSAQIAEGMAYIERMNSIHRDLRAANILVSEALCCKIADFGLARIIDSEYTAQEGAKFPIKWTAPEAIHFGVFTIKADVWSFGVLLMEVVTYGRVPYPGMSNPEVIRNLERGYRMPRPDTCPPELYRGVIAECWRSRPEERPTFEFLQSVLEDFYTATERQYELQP
Chain of HER2 (P04626 23-1255): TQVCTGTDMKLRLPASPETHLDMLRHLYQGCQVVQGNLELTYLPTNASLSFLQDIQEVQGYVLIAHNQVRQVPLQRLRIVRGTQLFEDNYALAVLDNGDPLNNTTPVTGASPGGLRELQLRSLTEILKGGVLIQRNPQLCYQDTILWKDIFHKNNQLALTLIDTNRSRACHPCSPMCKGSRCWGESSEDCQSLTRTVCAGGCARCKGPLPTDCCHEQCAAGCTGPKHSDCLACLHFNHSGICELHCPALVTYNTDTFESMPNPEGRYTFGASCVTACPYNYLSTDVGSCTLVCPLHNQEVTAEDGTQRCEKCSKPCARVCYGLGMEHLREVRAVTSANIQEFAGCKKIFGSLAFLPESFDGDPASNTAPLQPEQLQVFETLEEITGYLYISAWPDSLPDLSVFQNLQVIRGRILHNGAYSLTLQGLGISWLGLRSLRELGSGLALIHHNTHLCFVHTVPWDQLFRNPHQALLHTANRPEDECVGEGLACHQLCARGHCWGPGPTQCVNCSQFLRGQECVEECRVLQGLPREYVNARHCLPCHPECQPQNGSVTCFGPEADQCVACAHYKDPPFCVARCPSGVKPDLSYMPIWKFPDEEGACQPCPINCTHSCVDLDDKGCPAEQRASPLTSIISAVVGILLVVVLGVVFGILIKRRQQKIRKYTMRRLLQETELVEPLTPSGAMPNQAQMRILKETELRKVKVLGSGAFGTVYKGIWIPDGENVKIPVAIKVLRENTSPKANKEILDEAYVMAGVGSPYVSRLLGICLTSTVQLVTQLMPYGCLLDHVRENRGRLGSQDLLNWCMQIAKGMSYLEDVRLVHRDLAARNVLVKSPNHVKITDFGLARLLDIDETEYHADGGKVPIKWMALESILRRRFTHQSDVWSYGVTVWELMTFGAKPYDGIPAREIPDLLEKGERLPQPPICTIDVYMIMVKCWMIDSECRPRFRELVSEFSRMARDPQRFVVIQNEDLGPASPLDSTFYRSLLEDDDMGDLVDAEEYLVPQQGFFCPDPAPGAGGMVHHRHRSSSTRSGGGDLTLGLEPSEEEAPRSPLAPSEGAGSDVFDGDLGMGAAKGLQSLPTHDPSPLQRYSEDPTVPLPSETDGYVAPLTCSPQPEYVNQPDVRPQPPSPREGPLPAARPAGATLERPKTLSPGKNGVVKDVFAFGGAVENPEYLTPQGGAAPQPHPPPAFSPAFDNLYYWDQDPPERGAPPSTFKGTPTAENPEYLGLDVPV
Chain of HER4 (Q15303 26-1308): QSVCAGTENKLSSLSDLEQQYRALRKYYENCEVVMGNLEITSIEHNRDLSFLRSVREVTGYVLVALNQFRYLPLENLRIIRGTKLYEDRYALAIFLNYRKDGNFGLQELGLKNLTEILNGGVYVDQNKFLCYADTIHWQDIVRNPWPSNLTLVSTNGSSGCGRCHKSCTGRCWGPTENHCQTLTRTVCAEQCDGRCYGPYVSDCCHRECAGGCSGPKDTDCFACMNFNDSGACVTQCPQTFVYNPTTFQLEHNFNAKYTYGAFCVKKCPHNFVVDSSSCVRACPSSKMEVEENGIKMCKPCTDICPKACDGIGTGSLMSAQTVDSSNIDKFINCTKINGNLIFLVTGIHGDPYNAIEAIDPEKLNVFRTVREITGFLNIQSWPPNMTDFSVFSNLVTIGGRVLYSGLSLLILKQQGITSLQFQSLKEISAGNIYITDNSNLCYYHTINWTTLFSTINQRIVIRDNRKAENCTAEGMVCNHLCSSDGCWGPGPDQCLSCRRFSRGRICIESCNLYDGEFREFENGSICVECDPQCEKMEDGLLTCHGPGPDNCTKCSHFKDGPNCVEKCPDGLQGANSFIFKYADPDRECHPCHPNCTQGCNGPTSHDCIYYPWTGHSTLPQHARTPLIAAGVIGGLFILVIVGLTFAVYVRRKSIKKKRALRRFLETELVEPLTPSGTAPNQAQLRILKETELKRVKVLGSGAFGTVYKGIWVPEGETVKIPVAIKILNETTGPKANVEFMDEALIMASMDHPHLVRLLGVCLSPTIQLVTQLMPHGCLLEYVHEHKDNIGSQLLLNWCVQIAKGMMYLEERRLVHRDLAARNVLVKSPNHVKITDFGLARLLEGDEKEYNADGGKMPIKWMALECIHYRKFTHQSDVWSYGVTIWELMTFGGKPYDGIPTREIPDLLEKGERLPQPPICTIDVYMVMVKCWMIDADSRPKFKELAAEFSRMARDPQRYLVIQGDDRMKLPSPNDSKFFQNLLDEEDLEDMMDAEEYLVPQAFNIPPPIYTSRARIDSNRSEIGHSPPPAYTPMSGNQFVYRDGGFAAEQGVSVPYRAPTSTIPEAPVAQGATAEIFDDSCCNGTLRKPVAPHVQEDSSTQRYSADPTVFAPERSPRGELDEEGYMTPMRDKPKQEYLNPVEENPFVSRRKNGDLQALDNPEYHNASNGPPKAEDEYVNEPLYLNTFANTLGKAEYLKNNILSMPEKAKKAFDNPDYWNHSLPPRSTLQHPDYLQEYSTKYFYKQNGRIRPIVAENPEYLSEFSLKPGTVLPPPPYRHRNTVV

IC50 (TEC) [nM] | IC50 (HER2) [nM] | IC50 (BMX) [nM] | IC50 (BLK) [nM] | IC50 (EGFR) [nM] | IC50 (HER4) [nM] | Structure (SMILES) | IC50 ([1]; read-out: HepG2 IC50) [µM] | IC50 (human primary hepatocyte) [µM] | IC50 ([1]; another experiment, read-out: HepG2 IC50 (another experiment)) [µM]
0.67 | > 1000 | 0.36 | 3.1 | 268 | 3.1 | CC(C)(/C=C(\C#N)C(=O)N1CCC[C@@H](n2nc(-c3ccc(Oc4ccccc4)cc3F)c3c(N)ncnc32)C1)N1CCN(C2COC2)CC1 [PRN-1008, reference compound] | 39.6 | 23.5 | –
153 | > 1000 | 155 | > 1000 | > 1000 | > 1000 | C=CC(=O)Nc1cc(Nc2nc(-c3ccnc(N4CCn5c(cc6c5CC(C)(C)C6)C4=O)c3CO)cn(C)c2=O)ccc1N1CCN(C2CCOCC2)C[C@H]1C(F)(F)F [Example 48-S, N-(5-[[6-(2-[4,4-dimethyl-9-oxo-1,10-diazatricyclo[6.4.0.0^[2,6]]dodeca-2(6),7-dien-10-yl]-3-(hydroxymethyl)pyridin-4-yl)-4-methyl-3-oxopyrazin-2-yl]amino]-2-[(2S)-4-(oxan-4-yl)-2-(trifluoromethyl)piperazin-1-yl]phenyl)prop-2-enamide] | 64.5 | 40.9 | –
686 | > 1000 | 183 | > 1000 | > 1000 | > 1000 | C=CC(=O)Nc1cc(Nc2nc(-c3ccnc(N4CCc5c(sc6c5CCCC6)C4=O)c3CO)cn(C)c2=O)ccc1N1CCN(C2CCOCC2)C[C@H]1C(F)(F)F [Example 55-S, N-[5-([6-[3-(hydroxymethyl)-2-[6-oxo-8-thia-5-azatricyclo[7.4.0.0^[2,7]]trideca-1(9), 2(7)-dien-5-yl]pyridin-4-yl]-4-methyl-3-oxopyrazin-2-yl]amino)-2-[(2S)-4-(oxan-4-yl)-2-(trifluoromethyl)piperazin-1-yl]phenyl]prop-2-enamide] | 197 | > 100 | > 200
